This note sets out measurements from patent US20060276464A1, “Diarylsulfone sulfonamides and use thereof” (Wyeth, priority 2005, published 2006).

The target in test [1] is T1, SFRP-1 (Homo sapiens, UniProt Q8N474).
T1 sequence (Q8N474 32-314): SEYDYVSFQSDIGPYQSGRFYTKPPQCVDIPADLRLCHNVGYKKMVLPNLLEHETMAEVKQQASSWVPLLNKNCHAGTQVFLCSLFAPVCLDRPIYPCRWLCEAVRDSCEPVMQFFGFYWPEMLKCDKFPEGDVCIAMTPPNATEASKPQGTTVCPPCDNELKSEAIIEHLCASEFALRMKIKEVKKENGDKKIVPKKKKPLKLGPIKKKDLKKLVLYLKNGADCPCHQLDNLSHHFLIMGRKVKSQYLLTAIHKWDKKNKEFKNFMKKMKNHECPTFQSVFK
Nature of the test: Cell-based assay for in vitro measurement of SFRP-1/SARP2 antagonist activity (U2OS cells co-transfected with 16x TCF-tk-Luciferase reporter, Wnt and hSFRP-1).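 Note: U2OS cells co-transfected with a TCF-tk luciferase reporter, a Wnt vector, hSFRP-1 or empty vector and CMV-βgal, luciferase luminescence read in cell lysates alongside βgal activity.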 A general note: Reporter assays use an easily measured gene product as a stand-in for the process of interest.

For test [2], the target named is T1, SFRP-1. The test is described as follows: Fluorescence polarization binding assay (competitive displacement of a probe compound from SFRP-1).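 Note: test compound competes with a fluorescent probe held by SFRP-1, seen as a drop in probe anisotropy after incubation in darkness, with anisotropy as function of rising compound dose.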 The following applies: fluorescence anisotropy, 45 nM SFRP-1, 20 nM probe. For orientation: In fluorescence polarisation assays a small probe gives low polarisation when free and higher when bound to something large.

The EC50 is the midpoint of the concentration-response curve. By IC50 is commonly meant the point on the concentration scale where inhibition reaches its midpoint. Higher therefore signals a need for much substance. Consider `O=C(O)c1cccc(-c2cccc(CNS(=O)(=O)c3cc(S(=O)(=O)c4ccccc4)ccc3C(F)(F)F)c2)c1` [Example 996, 3′-[({[5-(phenylsulfonyl)-2-(trifluoromethyl)phenyl]sulfonyl}amino)methyl]biphenyl-3-carboxylic acid], for which, in test [1], the EC50 is 3010 nM. The IC50 in test [2] was 300 nM.
In the case of `O=C(O)c1ccc(-c2cccc(CNS(=O)(=O)c3cc(S(=O)(=O)c4ccccc4)ccc3C(F)(F)F)c2)cc1` [Example 997, 3′-[({[5-(phenylsulfonyl)-2-(trifluoromethyl)phenyl]sulfonyl}amino)methyl]biphenyl-4-carboxylic acid], the EC50 in test [1] is 3080 nM. Also, the IC50 in test [2] was 900 nM.
The corresponding values for `N=C(N)Nc1ccc(CCNS(=O)(=O)c2cc(S(=O)(=O)c3ccccc3)ccc2C(F)(F)F)cc1` [Example 998, N-[2-(4-{[amino(imino)methyl]amino}phenyl)ethyl]-5-(phenylsulfonyl)-2-(trifluoromethyl)benzenesulfonamide] are 2200 nM and 300 nM.
On the same counts, the results for `COc1ccc(S(=O)(=O)c2ccc(C(F)(F)F)c(S(=O)(=O)NC3CCNCC3)c2)cc1` [Example 999, 5-[(4-methoxyphenyl)sulfonyl]-N-piperidin-4-yl-2-(trifluoromethyl)benzenesulfonamide] are 789 nM and 800 nM.
The corresponding values for `CC(C(N)=O)N1CCC(NS(=O)(=O)c2cc(S(=O)(=O)c3ccccc3)ccc2C(F)(F)F)CC1` (centres unmarked) [Example 1003, 2-[4-({[5-(phenylsulfonyl)-2-(trifluoromethyl)phenyl]sulfonyl}amino)piperidin-1-yl]propanamide] are 399 nM and 140 nM.
In turn, `O=S(=O)(NC1Cc2ccc(O)cc2C1)c1cc(S(=O)(=O)c2ccccc2)ccc1C(F)(F)F` (centres unmarked) [Example 1004, N-(5-hydroxy-2,3-dihydro-1H-inden-2-yl)-5-(phenylsulfonyl)-2-(trifluoromethyl)benzenesulfonamide] returned an EC50 in test [1] of 473 nM. Besides, the IC50 in test [2] was determined as 60 nM.
In the case of `COP(=O)(Cc1ccc(C(=O)N(C)CCNS(=O)(=O)c2cc(S(=O)(=O)c3ccccc3)ccc2C(F)(F)F)cc1)OC` [Example 1006, dimethyl [4-({methyl[2-({[5-(phenylsulfonyl)-2-(trifluoromethyl)phenyl]sulfonyl}amino)ethyl]amino}carbonyl)benzyl]phosphonate], a half-maximal response in test [1] (EC50) required 8160 nM. This molecule also gave a 50% inhibitory concentration (IC50) in test [2] of 180 nM.
On the same counts, the results for `CN(CCNS(=O)(=O)c1cc(S(=O)(=O)c2ccccc2)ccc1C(F)(F)F)C(=O)N(C)C1CCNCC1` [Example 1007, N-[2-(methyl{[methyl(piperidin-4-yl)amino]carbonyl}amino)ethyl]-5-(phenylsulfonyl)-2-(trifluoromethyl)benzenesulfonamide] are 1520 nM and 900 nM.
The corresponding values for `CN(CCNS(=O)(=O)c1cc(S(=O)(=O)c2ccccc2)ccc1C(F)(F)F)C(=O)N[C@@H]1CCNC1` [Example 1008, N-[2-(methyl{[(3R)-pyrrolidin-3-ylamino]carbonyl}amino)ethyl]-5-(phenylsulfonyl)-2-(trifluoromethyl)benzenesulfonamide] are 936 nM and 3000 nM.
`CN(CCNS(=O)(=O)c1cc(S(=O)(=O)c2ccccc2)ccc1C(F)(F)F)C(=O)N[C@@H]1CCCN(C(=O)OC(C)(C)C)C1` [Example 1009, tert-butyl (3R)-3-[({methyl[2-({[5-(phenylsulfonyl)-2-(trifluoromethyl)phenyl]sulfonyl}amino)ethyl]amino}carbonyl)amino]piperidine-1-carboxylate]: it took 945 nM to reach a half-maximal effect in test [1] (EC50). This molecule also displayed an IC50 in test [2] of 210 nM.
`CN(CCNS(=O)(=O)c1cc(S(=O)(=O)c2ccccc2)ccc1C(F)(F)F)C(=O)N[C@H]1CCCN(C(=O)OC(C)(C)C)C1` [Example 1010, tert-butyl (3S)-3-[({methyl[2-({[5-(phenylsulfonyl)-2-(trifluoromethyl)phenyl]sulfonyl}amino)ethyl]amino}carbonyl)amino]piperidine-1-carboxylate]: in test [1], the EC50 was 2000 nM. The IC50 in test [2] stood at 600 nM.
With `O=S(=O)(N[C@H]1CC[C@H](O)CC1)c1cc(S(=O)(=O)c2ccccc2)ccc1C(F)(F)F` [Example 1013, N-(trans-4-hydroxycyclohexyl)-5-(phenylsulfonyl)-2-(trifluoromethyl)benzenesulfonamide], in test [1], it took 277 nM to reach a half-maximal effect (EC50). The same molecule registered an IC50 in test [2] of 158 nM.
The corresponding values for `O=S(=O)(NC1CCN(CCN2CCOCC2)CC1)c1cc(S(=O)(=O)c2ccccc2)ccc1C(F)(F)F` [Example 1019, N-[1-(2-morpholin-4-ylethyl)piperidin-4-yl]-5-(phenylsulfonyl)-2-(trifluoromethyl)benzenesulfonamide] are 898 nM and 290 nM.
`O=C(c1ccc(=O)n(S(=O)(=O)c2cc(S(=O)(=O)c3ccccc3)ccc2C(F)(F)F)c1)N1CCC(NS(=O)(=O)c2cc(S(=O)(=O)c3ccccc3)ccc2C(F)(F)F)CC1` [Example 1020, N-{1-[(6-oxo-1-{[5-(phenylsulfonyl)-2-(trifluoromethyl)phenyl]sulfonyl}-1,6-dihydropyridin-3-yl)carbonyl]piperidin-4-yl}-5-(phenylsulfonyl)-2-(trifluoromethyl)benzenesulfonamide]: in test [1], the midpoint of the response, the EC50, lay at 264 nM. The same molecule showed an IC50 in test [2] of 600 nM.
The corresponding values for `COc1ccc(CNS(=O)(=O)c2cc(S(=O)(=O)c3ccccc3)ccc2C(F)(F)F)c(OC)c1` [Example 1021, N-(2,4-dimethoxybenzyl)-5-(phenylsulfonyl)-2-(trifluoromethyl)benzenesulfonamide] are above 10000 nM and 200 nM.
On the same counts, the results for `CN(CCNS(=O)(=O)c1cc(S(=O)(=O)c2ccccc2)ccc1C(F)(F)F)C(=O)N[C@@H]1CCCNC1` [Example 1022, N-[2-(methyl{[(3R)-piperidin-3-ylamino]carbonyl}amino)ethyl]-5-(phenylsulfonyl)-2-(trifluoromethyl)benzenesulfonamide] are 726 nM and 170 nM.
In turn, `CN(CCNS(=O)(=O)c1cc(S(=O)(=O)c2ccccc2)ccc1C(F)(F)F)C(=O)N[C@H]1CCCNC1` [Example 1023, N-[2-(methyl{[(3S)-piperidin-3-ylamino]carbonyl}amino)ethyl]-5-(phenylsulfonyl)-2-(trifluoromethyl)benzenesulfonamide] displayed an EC50 in test [1] of 547 nM. In test [2], this molecule came in with an IC50 of 210 nM.
The molecule `O=C(c1ccc(-c2ccccc2)nc1)N1CCC(NS(=O)(=O)c2cc(S(=O)(=O)c3ccccc3)ccc2C(F)(F)F)CC1` [Example 1024, N-{1-[(6-phenylpyridin-3-yl)carbonyl]piperidin-4-yl}-5-(phenylsulfonyl)-2-(trifluoromethyl)benzenesulfonamide] returned an EC50 in test [1] of 236 nM. In test [2], the IC50 turned out to be 200 nM.
Molecule `COC(=O)COc1ccc2c(c1)CC(NS(=O)(=O)c1cc(S(=O)(=O)c3ccccc3)ccc1C(F)(F)F)C2` (centres unmarked) [Example 1028, methyl{[2-({[5-(phenylsulfonyl)-2-(trifluoromethyl)phenyl]sulfonyl}amino)-2,3-dihydro-1H-inden-5-yl]oxy}acetate] came in with an EC50 in test [1] of 87 nM. The same molecule returned an IC50 in test [2] of 60 nM.
On the same counts, the results for `O=C(c1ccnc(N2CCCC2)c1)N1CCC(NS(=O)(=O)c2cc(S(=O)(=O)c3ccccc3)ccc2C(F)(F)F)CC1` [Example 1029, 5-(phenylsulfonyl)-N-[1-(2-pyrrolidin-1-ylisonicotinoyl)piperidin-4-yl]-2-(trifluoromethyl)benzenesulfonamide] are 490 nM and 140 nM.
The corresponding values for `O=S(=O)(NCc1ccc(Cl)nc1)c1cc(S(=O)(=O)c2ccccc2)ccc1C(F)(F)F` [Example 1030, N-[(6-chloropyridin-3-yl)methyl]-5-(phenylsulfonyl)-2-(trifluoromethyl)benzenesulfonamide] are 1110 nM and 500 nM.
Consider `O=C(O)COc1ccc2c(c1)CC(NS(=O)(=O)c1cc(S(=O)(=O)c3ccccc3)ccc1C(F)(F)F)C2` (centres unmarked) [Example 1031, {[2-({[5-(phenylsulfonyl)-2-(trifluoromethyl)phenyl]sulfonyl}amino)-2,3-dihydro-1H-inden-5-yl]oxy}acetic acid], for which, in test [1], the response was half-maximal at 85 nM (EC50). In addition, the IC50 in test [2] was found to be 20 nM.
On the same counts, the results for `O=S(=O)(NCc1ccc(N2CCCC2)nc1)c1cc(S(=O)(=O)c2ccccc2)ccc1C(F)(F)F` [Example 1032, 5-(phenylsulfonyl)-N-[(6-pyrrolidin-1-ylpyridin-3-yl)methyl]-2-(trifluoromethyl)benzenesulfonamide] are 1440 nM and 500 nM.
On the same counts, the results for `O=S(=O)(NCc1ccc(N2CCOCC2)nc1)c1cc(S(=O)(=O)c2ccccc2)ccc1C(F)(F)F` [Example 1033, N-[(6-morpholin-4-ylpyridin-3-yl)methyl]-5-(phenylsulfonyl)-2-(trifluoromethyl)benzenesulfonamide] are 1520 nM and 500 nM.
The corresponding values for `O=S(=O)(NC1CCNCC1)c1cc(S(=O)(=O)c2cccc(Br)c2)ccc1C(F)(F)F` [Example 1034, 5-[(3-bromophenyl)sulfonyl]-N-piperidin-4-yl-2-(trifluoromethyl)benzenesulfonamide] are 1670 nM and 500 nM.
